SMILES strings stand for the structures.

15-PGDH/HPGD, sequence (P15428 whole entry): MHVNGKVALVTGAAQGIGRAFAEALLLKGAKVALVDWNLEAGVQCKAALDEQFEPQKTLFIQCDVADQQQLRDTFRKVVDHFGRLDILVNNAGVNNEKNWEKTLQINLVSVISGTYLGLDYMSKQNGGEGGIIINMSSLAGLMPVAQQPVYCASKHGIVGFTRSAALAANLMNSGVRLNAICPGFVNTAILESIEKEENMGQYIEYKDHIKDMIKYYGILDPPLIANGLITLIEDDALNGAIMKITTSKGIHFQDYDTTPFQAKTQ

The target in this assay is 15-PGDH/HPGD (Homo sapiens (Human), UniProt P15428). Kind of assay: hPGDH inhibitor screening biochemical assay. The following applies: read-out: hPGDH: Average IC50. The essentials:
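Recombinant human 15-PGDH (10 nM) pre-incubated with compounds 10 min at 37 °C, then 15 μM PGE2 and 0.25 mM NAD+ added for 10 min at room temperature in 50 mM Tris-HCl pH 7.5, 0.01% Tween 20. NADH fluorescence read at ex/em 340/485 nm. IC50 from 10-point curves, four-parameter fit versus 1% DMSO.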
Usually IC50 stands for the midpoint of a concentration-inhibition curve. Regarding `O=C(c1cnc2c(ccn2-c2ccccn2)c1)N1CCCCC1` [MF-PGDH-067], the IC50 was < 0.1 µM.
As for `O=C(c1cnc2c(c1)ncn2-c1ccc(O)cc1)N1CCC(F)CC1` [MF-DH-238], the IC50 was 0.1 to 1 µM.
As for `COc1ccc(-n2c(CCNC(C)=O)nc3cc(C(=O)N4CCC(F)CC4)cnc32)cc1` [MF-DH-117], the IC50 was ≥ 1 µM.
Under `O=C(c1cnc2c(ccn2-c2ccc3[nH]ncc3c2)c1)N1CCCCC1` [MF-DH-319, (1-(1H-indazol-5-yl)-1H-pyrrolo[2,3-b]pyridin-5-yl)(piperidin-1-yl)methanone] stands < 0.1 µM.
As to `O=C(O)c1ccc(-n2ccc3cc(C(=O)N4CCCCC4)cnc32)cc1` [MF-DH-433, 4-(5-(piperidine-1-carbonyl)-1H-pyrrolo[2,3-b]pyridin-1-yl)benzoic acid], the IC50 was < 0.1 µM.
Under `CCOc1ccc(-n2ccc3cc(C(=O)N4CCCCC4)cnc32)cc1` [MF-DH-306] stands < 0.1 µM; under `O=C(c1cnc2c(c1)ncn2-c1cccc(OC(F)(F)F)c1)N1CCC(F)CC1` [MF-DH-226], 0.1 to 1 µM; under `COc1ccc(-c2cn(C)c3cc(C(=O)N4CCC(F)CC4)cnc23)cc1` [MF-DH-181, (4-fluoropiperidin-1-yl)(3-(4-methoxyphenyl)-1-methyl-1H-pyrrolo[3,2-b]pyridin-6-yl)methanone], 0.1 to 1 µM.
The figure for `Cn1cc(-n2ccc3cc(C(=O)N4CCC(F)CC4)cnc32)cn1` [MF-DH-139] is < 0.1 µM.
Turning to `COc1ccc(-c2c[nH]c3cc(C(=O)N4CCC(F)CC4)cnc23)cc1` [MF-DH-204], the IC50 lay within 0.1 to 1 µM.
Turning to `N#Cc1cc(-n2ccc3cc(C(=O)N4CCC(F)(F)CC4)cnc32)cnc1O` [MF-DH-502], the IC50 is < 0.1 µM.
Under `CC(C)(CC(=O)O)NC(=O)c1ccc(-n2ccc3cc(C(=O)N4CCC(F)(F)CC4)cnc32)cc1` [MF-DH-431] stands < 0.1 µM.
For `COc1cccc(-n2cc(Cl)c3cc(C(=O)N4CCCCC4)cnc32)c1` [MF-DH-273], the IC50 was < 0.1 µM.
Under `O=C(c1ccc2c(ccn2-c2cccc(Cl)c2)c1)N1CCCCC1` [MF-PGDH-004] stands < 0.1 µM; under `COc1ccc(-n2ccc3cc(C(=O)N4CCC(F)CC4)cnc32)cc1` [MF-DH-285], < 0.1 µM; under `O=C(c1cnc2c(ccn2-c2cnccn2)c1)N1CCCCC1` [MF-PGDH-071], < 0.1 µM.
For `O=C(c1ccc(C[S+]([O-])c2ccccc2Cl)cc1)N1CCCCC1` (centres unmarked) [MF-PGDH-045, (4-(((2-chlorophenyl)sulfinyl)methyl)phenyl)(piperidin-1-yl)methanone], the IC50 was in the range of 0.1 to 1 µM.
The figure for `O=C(c1cnc2c(ccn2-c2ccc(C3(C(=O)O)CC3)cc2)c1)N1CCC(F)(F)CC1` [MF-DH-427, 1-(4-(5-(4,4-difluoropiperidine-1-carbonyl)-1H-pyrrolo[2,3-b]pyridin-1-yl)phenyl)cyclopropane-1-carboxylic acid] is 0.1 to 1 µM.
Under `O=C(c1cnc2c(-c3cccc(Cl)c3)cnn2c1)N1CCCCC1` [MF-PGDH-012, (3-(3-chlorophenyl)pyrazolo[1,5-a]pyrimidin-6-yl)(piperidin-1-yl)methanone] stands < 0.1 µM; under `COc1ccc(Cn2cc(-n3ccc4cc(C(=O)N5CCCCC5)cnc43)cn2)cc1` [MF-DH-129], 0.1 to 1 µM; under `CC(C)(O)CCC#Cc1nc2cc(C(=O)N3CCC(F)(F)CC3)cnc2n1-c1ccc(C#N)cc1` [MF-DH-544, 4-(6-(4,4-difluoropiperidine-1-carbonyl)-2-(5-hydroxy-5-methylhex-1-yn-1-yl)-3H-imidazo[4,5-b]pyridin-3-yl)benzonitrile], 0.1 to 1 µM.
As to `CC1(C)CCN(c2cnccn2)c2ccc(C(=O)N3CCC(F)CC3)cc21` [MF-DH-160, (4,4-dimethyl-1-(pyrazin-2-yl)-1,2,3,4-tetrahydroquinolin-6-yl)(4-fluoropiperidin-1-yl)methanone], the IC50 lay in the range of 0.1 to 1 µM.
Under `O=C(c1ccc2c(c1)ncn2-c1cccc(Cl)c1)N1CC(Cl)C1` [MF-PGDH-107] stands < 0.1 µM; under `CCOC(=O)c1nc2cc(C(=O)N3CCCCC3)ccc2n1-c1cccc(Cl)c1` [MF-PGDH-027, ethyl 1-(3-chlorophenyl)-5-(piperidine-1-carbonyl)-1H-benzo[d]imidazole-2-carboxylate], < 0.1 µM; under `O=C(Nc1ccc(C(=O)N2CCCCC2)cc1)c1ccccc1Cl` [MF-PGDH-088], 0.1 to 1 µM.
Under `CNC(=O)c1cncc(-n2ccc3cc(C(=O)N4CCCCC4)cnc32)c1` [MF-DH-362] stands < 0.1 µM.
Under `N#Cc1ccc(-n2ccc3cc(C(=O)N4CCCCC4)cnc32)cc1` [MF-DH-298] stands < 0.1 µM.
`O=C(c1ccc2c(c1)c(Cl)cn2-c1cccc(Cl)c1)N1CCCCC1` [MF-PGDH-005]: the IC50 was < 0.1 µM.
Regarding `CN(C)c1cccc(-n2ccc3cc(C(=O)N4CCCCC4)cnc32)c1` [MF-DH-302], the IC50 was < 0.1 µM.
The figure for `O=C(c1cnc2c(ccn2-c2cccnc2)c1)N1CCCCC1` [MF-PGDH-068] is < 0.1 µM; for `COc1ccc(-n2ccc3cc(C(=O)N4CC(c5ccccc5)C4)cnc32)cc1` [MF-DH-326] it is ≥ 1 µM.
Under `O=C(c1cnc2c(ccn2-c2ccc(-c3noc(=O)[nH]3)nc2)c1)N1CCC(F)(F)CC1` [MF-DH-456, 3-(5-(5-(4,4-difluoropiperidine-1-carbonyl)-1H-pyrrolo[2,3-b]pyridin-1-yl)pyridin-2-yl)-1,2,4-oxadiazol-5(4H)-one] stands < 0.1 µM; under `COc1ccc(-n2c(C3CC3)nc3cc(C(=O)N4CCCCC4)ccc32)cc1` [MF-PGDH-021], 0.1 to 1 µM.
Regarding `Cc1nc2cc(C(=O)N3CCCCC3)ccc2n1-c1cccc(Cl)c1` [MF-PGDH-091], the IC50 is < 0.1 µM.
Under `COc1ccc(-n2ccc3cc(C(=O)N4CCC(c5ccccc5)CC4)cnc32)cc1` [MF-DH-325] stands ≥ 1 µM.
Under `CCn1cnc(-n2ccc3cc(C(=O)N4CCCCC4)cnc32)c1` [MF-PGDH-073] stands 0.1 to 1 µM; under `O=C(c1cnc2c(ccn2-c2cccc(C(=O)N3CC[S+]([O-])C3)c2)c1)N1CCC(F)(F)CC1` (centres unmarked) [MF-DH-527, (4,4-difluoropiperidin-1-yl)(1-(3-(1-oxidothiazolidine-3-carbonyl)phenyl)-1H-pyrrolo[2,3-b]pyridin-5-yl)methanone], < 0.1 µM.
Consider `O=C(c1ccc(COc2ccccc2Br)cc1)N1CCCCC1` [MF-PGDH-036], for which the IC50 is < 0.1 µM.
The figure for `O=C(c1cnc2c(ccn2-c2cncnc2)c1)N1CCCCC1` [MF-PGDH-070] is < 0.1 µM; for `COc1ccc(Cn2cc3cc(-n4ccc5cc(C(=O)N6CCCCC6)cnc54)ccc3n2)cc1` [MF-DH-340] it is < 0.1 µM; for `O=C(c1cnc2c(ccn2-c2ccc(O)nc2)c1)N1CCC(F)CC1` [MF-DH-133] it is < 0.1 µM.
The figure for `N#Cc1ccc(-n2cnc3cc(C(=O)N4CC(Cl)C4)cnc32)cc1` [MF-DH-443] is < 0.1 µM; for `Cc1nc(-c2cccc(-n3ccc4cc(C(=O)N5CCCCC5)cnc43)c2)no1` [MF-DH-402] it is < 0.1 µM.
For `NC(=O)c1cccc(-n2ccc3cc(C(=O)N4CCCCC4)cnc32)c1` [MF-DH-301], the IC50 is < 0.1 µM.
As for `O=C(c1ccc(COc2ccccc2-c2ccccn2)cc1)N1CCCCC1` [MF-PGDH-095], the IC50 was < 0.1 µM.
As to `N#Cc1ccc(-n2c(CCC(N)=O)cc3cc(C(=O)N4CCC(F)(F)CC4)cnc32)cc1` [MF-DH-446, 3-(1-(4-cyanophenyl)-5-(4,4-difluoropiperidine-1-carbonyl)-1H-pyrrolo[2,3-b]pyridin-2-yl)propanamide], the IC50 lay within 0.1 to 1 µM.
Under `N#Cc1ccc(-n2ccc3cc(C(=O)N4CCC(F)CC4)ncc32)cc1` [MF-DH-463, 4-(5-(4-fluoropiperidine-1-carbonyl)-1H-pyrrolo[2,3-c]pyridin-1-yl)benzonitrile] stands ≥ 1 µM; under `O=C(c1ccc2c(c1)ncn2-c1cccc(Cl)c1)N1CCCCCC1` [MF-PGDH-016], < 0.1 µM.
Consider `COc1ccc(-n2c(C)nc3cc(C(=O)N4CCC(F)CC4)cnc32)cc1` [MF-DH-176], for which the IC50 was 0.1 to 1 µM.
Under `COc1ccc(-n2cnc3cc(C(=O)N4CCC(F)CC4)ccc32)nc1` [MF-DH-141] stands < 0.1 µM; under `O=C(c1cnc2c(ccn2-c2cccc(CO)c2)c1)N1CCCCC1` [MF-DH-308], < 0.1 µM; under `CN(C)C(=O)c1cncc(-n2ccc3cc(C(=O)N4CCCCC4)cnc32)c1` [MF-DH-363], < 0.1 µM.
The figure for `CC1(C)CN(C(=O)c2ccc3c(c2)ncn3-c2cccc(Cl)c2)C1` [MF-PGDH-105] is 0.1 to 1 µM; for `NC(=O)c1cccc(-n2ccc3cc(C(=O)N4CCC(F)CC4)cnc32)c1` [MF-DH-345] it is < 0.1 µM; for `O=C(c1ccc2c(c1)ncn2-c1ccc(O)c(Cl)c1)N1CCCCC1` [MF-PGDH-061, (1-(3-chloro-4-hydroxyphenyl)-1H-benzo[d]imidazol-5-yl)(piperidin-1-yl)methanone] it is < 0.1 µM.
Under `O=C(O)Cc1ccc(-n2ccc3cc(C(=O)N4CCC(F)(F)CC4)cnc32)cc1` [MF-DH-426, 2-(4-(5-(4,4-difluoropiperidine-1-carbonyl)-1H-pyrrolo[2,3-b]pyridin-1-yl)phenyl)acetic acid] stands < 0.1 µM; under `O=C(c1cnc2c(c1)c(Cl)cn2-c1cncnc1)N1CCC(F)CC1` [MF-DH-145], < 0.1 µM.
In the case of `O=C(c1cnc2c(ccn2-c2cnccn2)c1Cl)N1CCC(F)CC1` [MF-DH-146], the IC50 is < 0.1 µM.
As for `Nc1ncc(-n2ccc3cc(C(=O)N4CCCCC4)cnc32)cc1Cl` [MF-DH-393], the 50% inhibitory concentration (IC50) was < 0.1 µM.
The figure for `COc1cccc(-n2nc(Cl)c3cc(C(=O)N4CCCCC4)ccc32)c1` [MF-DH-272] is 0.1 to 1 µM.
Under `N#Cc1ccc(-n2cnc3cc(C(=O)N4CCC(F)(F)CC4)cnc32)cc1` [MF-DH-442] stands < 0.1 µM; under `Nc1ccc(-n2ccc3cc(C(=O)N4CCCCC4)cnc32)cn1` [MF-DH-336], < 0.1 µM.

(Values after patent publication US11345702B1 (Myoforte Therapeutics, Inc., priority 2020, dated 2022).)
